Assay results reported in ChEMBL document CHEMBL4421728, “Bach1 Inhibitors in Combination with Nrf2 Activators and Pharmaceutical Compositions Thereof” (2017).
One block for each compound: values may come before it.

Assays:
[1] = biological target: T1, Nuclear factor erythroid 2-related factor 2 (Homo sapiens) (UniProt Q16236); assay: Activation of Nrf2 in normal human lung fibroblasts assessed as induction of HMOX protein expression by measuring HMOX positive cells level at 0.03 uM incubated for 16 to 18 hrs by immunostaining relative to control DMSO
T1 sequence (whole entry): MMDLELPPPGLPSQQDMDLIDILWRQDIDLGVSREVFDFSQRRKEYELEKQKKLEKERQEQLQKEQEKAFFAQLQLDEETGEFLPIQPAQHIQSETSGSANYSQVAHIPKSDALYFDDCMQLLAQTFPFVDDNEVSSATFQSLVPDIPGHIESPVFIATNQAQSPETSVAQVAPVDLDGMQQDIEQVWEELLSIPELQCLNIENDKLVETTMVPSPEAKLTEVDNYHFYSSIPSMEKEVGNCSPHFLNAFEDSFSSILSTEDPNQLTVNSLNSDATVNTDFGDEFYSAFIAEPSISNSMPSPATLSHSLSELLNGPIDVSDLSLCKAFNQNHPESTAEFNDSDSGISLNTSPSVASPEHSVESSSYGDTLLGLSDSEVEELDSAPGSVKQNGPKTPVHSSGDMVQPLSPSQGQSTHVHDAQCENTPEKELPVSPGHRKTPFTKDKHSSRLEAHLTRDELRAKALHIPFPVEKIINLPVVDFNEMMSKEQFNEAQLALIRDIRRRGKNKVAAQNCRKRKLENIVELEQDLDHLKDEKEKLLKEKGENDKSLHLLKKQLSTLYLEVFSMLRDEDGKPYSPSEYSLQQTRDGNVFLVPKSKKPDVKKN

[2] = biological target: T1, Nuclear factor erythroid 2-related factor 2 (Homo sapiens); assay: Activation of Nrf2 in normal human lung fibroblasts assessed as induction of HMOX protein expression at 0.03 uM incubated for 16 to 18 hrs by immunostaining relative to control
[3] = biological target: T1, Nuclear factor erythroid 2-related factor 2 (Homo sapiens); assay: Activation of Nrf2 in normal human lung fibroblasts assessed as induction of HMOX protein expression at 1 uM incubated for 16 to 18 hrs by immunostaining relative to control
[4] = biological target: T1, Nuclear factor erythroid 2-related factor 2 (Homo sapiens); assay: Activation of Nrf2 in normal human lung fibroblasts assessed as induction of HMOX protein expression at 0.3 uM incubated for 16 to 18 hrs by immunostaining relative to control
[5] = biological target: T1, Nuclear factor erythroid 2-related factor 2 (Homo sapiens); assay: Activation of Nrf2 in normal human lung fibroblasts assessed as induction of HMOX protein expression by measuring HMOX positive cells level at 0.3 uM incubated for 16 to 18 hrs by immunostaining relative to control DMSO
[6] = biological target: T1, Nuclear factor erythroid 2-related factor 2 (Homo sapiens); assay: Activation of Nrf2 in normal human lung fibroblasts assessed as induction of HMOX protein expression by measuring HMOX positive cells level at 0.1 uM incubated for 16 to 18 hrs by immunostaining relative to control DMSO
[7] = biological target: T1, Nuclear factor erythroid 2-related factor 2 (Homo sapiens); assay: Activation of Nrf2 in normal human lung fibroblasts assessed as induction of HMOX protein expression by measuring HMOX positive cells level at 30 uM incubated for 16 to 18 hrs by immunostaining relative to control DMSO
[8] = biological target: T1, Nuclear factor erythroid 2-related factor 2 (Homo sapiens); assay: Activation of Nrf2 in normal human lung fibroblasts assessed as induction of HMOX protein expression at 3 uM incubated for 16 to 18 hrs by immunostaining relative to control
[9] = biological target: T1, Nuclear factor erythroid 2-related factor 2 (Homo sapiens); assay: Activation of Nrf2 in normal human lung fibroblasts assessed as induction of HMOX protein expression by measuring HMOX positive cells level at 10 uM incubated for 16 to 18 hrs by immunostaining relative to control DMSO
[10] = biological target: T1, Nuclear factor erythroid 2-related factor 2 (Homo sapiens); assay: Activation of Nrf2 in normal human lung fibroblasts assessed as induction of HMOX protein expression at 30 uM incubated for 16 to 18 hrs by immunostaining relative to control
[11] = biological target: T1, Nuclear factor erythroid 2-related factor 2 (Homo sapiens); assay: Activation of Nrf2 in normal human lung fibroblasts assessed as induction of HMOX protein expression at 10 uM incubated for 16 to 18 hrs by immunostaining relative to control
[12] = biological target: T1, Nuclear factor erythroid 2-related factor 2 (Homo sapiens); assay: Activation of Nrf2 in normal human lung fibroblasts assessed as induction of HMOX protein expression at 0.1 uM incubated for 16 to 18 hrs by immunostaining relative to control
[13] = biological target: T1, Nuclear factor erythroid 2-related factor 2 (Homo sapiens); assay: Activation of Nrf2 in normal human lung fibroblasts assessed as induction of HMOX protein expression by measuring HMOX positive cells level at 3 uM incubated for 16 to 18 hrs by immunostaining relative to control DMSO
[14] = biological target: T1, Nuclear factor erythroid 2-related factor 2 (Homo sapiens); assay: Activation of Nrf2 in normal human lung fibroblasts assessed as induction of HMOX protein expression by measuring HMOX positive cells level at 1 uM incubated for 16 to 18 hrs by immunostaining relative to control DMSO
[15] = biological target: T1, Nuclear factor erythroid 2-related factor 2 (Homo sapiens); assay: Activation of Nrf2 in normal human lung fibroblasts assessed as induction of HMOX protein expression at 0.078 uM incubated for 16 to 18 hrs by immunostaining relative to control
[16] = biological target: T1, Nuclear factor erythroid 2-related factor 2 (Homo sapiens); assay: Activation of Nrf2 in normal human lung fibroblasts assessed as induction of HMOX protein expression at 0.0024 uM incubated for 16 to 18 hrs by immunostaining relative to control
[17] = biological target: T1, Nuclear factor erythroid 2-related factor 2 (Homo sapiens); assay: Activation of Nrf2 in normal human lung fibroblasts assessed as induction of HMOX protein expression at 0.039 uM incubated for 16 to 18 hrs by immunostaining relative to control
[18] = biological target: T1, Nuclear factor erythroid 2-related factor 2 (Homo sapiens); assay: Activation of Nrf2 in normal human lung fibroblasts assessed as induction of HMOX protein expression at 0.0097 uM incubated for 16 to 18 hrs by immunostaining relative to control
[19] = biological target: T1, Nuclear factor erythroid 2-related factor 2 (Homo sapiens); assay: Activation of Nrf2 in normal human lung fibroblasts assessed as induction of HMOX protein expression at 0.0048 uM incubated for 16 to 18 hrs by immunostaining relative to control
[20] = biological target: T1, Nuclear factor erythroid 2-related factor 2 (Homo sapiens); assay: Activation of Nrf2 in normal human lung fibroblasts assessed as induction of HMOX protein expression at 0.156 uM incubated for 16 to 18 hrs by immunostaining relative to control
[21] = biological target: T1, Nuclear factor erythroid 2-related factor 2 (Homo sapiens); assay: Activation of Nrf2 in normal human lung fibroblasts assessed as induction of HMOX protein expression at 0.312 uM incubated for 16 to 18 hrs by immunostaining relative to control
[22] = biological target: T1, Nuclear factor erythroid 2-related factor 2 (Homo sapiens); assay: Activation of Nrf2 in normal human lung fibroblasts assessed as induction of HMOX protein expression at 0.019 uM incubated for 16 to 18 hrs by immunostaining relative to control

Activity [1]: 1.71%
fold change (FC) [2]: 1.04
fold change (FC) [3]: 1.39
fold change (FC) [4]: 1.14
Activity [5]: 2.47%
Activity [6]: 1.21%
Activity [7]: 84.6%
fold change (FC) [8]: 2.76
Activity [9]: 74.3%
fold change (FC) [10]: 6.19
fold change (FC) [11]: 4.45
fold change (FC) [12]: 1.06
Activity [13]: 41.6%
Activity [14]: 4.38%
Compound: COC(=O)/C=C/C(=O)OC

fold change (FC) [15]: 12.2
fold change (FC) [16]: 1.31
fold change (FC) [17]: 8.48
fold change (FC) [18]: 2.53
fold change (FC) [19]: 1.59
fold change (FC) [20]: 19
fold change (FC) [21]: 16.4
fold change (FC) [22]: 5
Compound: COC(=O)[C@]12CCC(C)(C)C[C@H]1[C@H]1C(=O)C=C3[C@@]4(C)C=C(C#N)C(=O)C(C)(C)[C@@H]4CC[C@@]3(C)[C@]1(C)CC2
